Measured values as given in patent US20080292619A1, “Pharmaceutical Composition Containing Meltrin Antagonist” (MOCHIDA PHARMACEUTICAL CO., LTD., priority 2004, published 2008).
In the oligonucleotide strings, read from the 5' end, every base follows the letter of its sugar. An asterisk marks phosphorothioate; unmarked linkages are phosphodiester. Other units and linkages are bracketed, terminal groups are in braces. A string of capitals states the bases alone. d = 2'-deoxy (DNA)

Key:
human meltrin α RNA = experiment: Suppression of human meltrin α expression by antisense compound in RD cell (real time PCR); assay type: cell-based; conditions: for suppression rate of expression, 50 nM / suppression rate of expression, 200 nM: corrected by GAPDH; for RNase H-dependent activity of suppressing the meltrin α expression: 2′-methoxy modified form compared to the phosphorothioate form
How it was run: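 RD cells transfected with heat-denatured antisense oligodeoxynucleotide plus Lipofectin in Opti-MEM for 4 h at 37° C, then cultured 18 h. Meltrin α RNA quantified by TaqMan RT-PCR against plasmid standard curve, GAPDH-corrected; suppression vs untreated cells, rated +/++/+++ for ≥30/50/70%.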

human preadipocyte = experiment: Effect of antisense compound on adipocyte proliferation and differentiation (Adipo Red); assay type: cell-based
Experimental: First, human preadipocyte (Human Preadipocytes-sq POIETICS #PT-5020, Sanko Junyaku Co., Ltd.) was suspended in growth medium (#PT-8200, Sanko Junyaku Co., Ltd.), and after adding the suspension to a 96 well culture plate at 1×10^4 cells/well/100 μL, the cells were cultured overnight at 37° C. in the presence of 5% CO2.
The preadipocyte was cultured overnight, and after washing the preadipocyte twice with serum-free DMEM, Opti-MEM was added at 80 μL/well.
Gene transfection reagent Lipofectin was diluted with Opti-MEM to 20 μg/mL, and the dilution was allowed to stand at room temperature for 30 minutes. Next, the antisense oligodeoxynucleotide synthesized as described above was heated at 90° C. for 3 minutes, and after quenching on ice, diluted with Opti-MEM to a concentration 10 times higher than the final concentration. Equal amounts of the Lipofectin in Opti-MEM and the antisense oligodeoxynucleotide in Opti-MEM were mixed, and the mixture was incubated at room temperature for 15 minutes and added to 96 well plate at 20 μL/well. After incubating at 37° C. for 4 hours in the presence of 5% CO2, it was used for examination as described below.
The differentiation medium was prepared by using growth medium (#PT-8200, Sanko Junyaku Co., Ltd.) and supplement kit (PGM Single Quots, #PT-9500, Sanko Junyaku Co., Ltd.) according to the instruction of the kit. Next, the culture supernatant containing the Lipofectin was removed from the 96 well plate prepared in the above (2), and the plate was washed twice with serum-free DMEM, and the differentiation medium prepared as described above was added at 100 μL/well. The plate was then incubated at 37° C. for 5 days to 15 days in the presence of 5% CO2.
Accumulation of the neutral fat in the adipocyte was determined by fluorometry using Adipo Red stain.
After taking the 96 well plate out of the CO2 incubator, the plate was allowed to stand until it reached room temperature. The plate was centrifuged at 300 g (1200 rpm) for 10 minutes at room temperature to remove the medium. Next, after gently washing with PBS (SIGMA) at 200 μL/well, PBS was added to the well at 200 μL/well. Next, Adipo Red Assay Reagent (Adipo Red, Cat. #PT-7009, Lot.3F0497, A Cambrex Company) was added at 5 μL/well, and the plate was allowed to stand at room temperature for at least 10 minutes to thereby stain the neutral fat accumulated in the adipocyte. The fat accumulation was determined by measuring fluorescence intensity in a fluorometer at an excitation wavelength of 485 nm and an emission wavelength of 535 nm.
The suppression rate of the adipocyte differentiation was calculated by converting the fluorescence intensity of the well transfected with the antisense compound in relation to the fluorescence intensity of the well without transfection with the antisense compound which was assumed as 100%. The result was rated “+” when the suppression rate was at least 25%, “++” when the suppression rate was at least 50%, and “+++” when the suppression rate was at least 75%.

Row | Substance | Supression of expression, 50 nM (human meltrin α RNA; 50 nM, RD cell) | Supression of adipose differentiation 300 nM (human preadipocyte; 300 nM, human preadipocyte) | suppression rate of expression, 50 nM (human meltrin α RNA; 50 nM, RD cell) | suppression rate of expression, 200 nM (human meltrin α RNA; RD cell) | Score (suppressing the human adipocyte differentiation) (human preadipocyte) | RNase H-dependent activity of suppressing the meltrin α expression (human meltrin α RNA)
1 | 5 (dG*dT*dT*dT*dG*dG*dC*dT*dT*dA*dC*dA*dG*dG*dT*dC*dC*dC*dC*dT) [compound 5] | ++ (“++” when the suppression rate was at least 50%) | ++ (“++” when the suppression rate was at least 50%) |  |  |  | 
2 | H005: tgcgtcgcgcgcgcgccgtt (TGCGTCGCGCGCGCGCCGTT; antisense; DNA, all phosphorothioate, methylation of C not given here) |  |  | ++ (“++” when the suppression rate was at least 50%) | ++ (“++” when the suppression rate was at least 50%) | ++ (“++” when the suppression rate was at least 50%) | 
3 | H130: tgacagggttggaagccacg (TGACAGGGTTGGAAGCCACG; antisense; DNA, all phosphorothioate, methylation of C not given here) |  |  | ++ (“++” when the suppression rate was at least 50%) | +++ (“+++” when the suppression rate was at least 70%) | +++ (“+++” when the suppression rate was at least 75%) | reduced activity of suppressing the meltrin α expression
4 | H131: caaggtggccgaggtgagcc (CAAGGTGGCCGAGGTGAGCC; antisense; DNA, all phosphorothioate, methylation of C not given here) |  |  | ++ (“++” when the suppression rate was at least 50%) | +++ (“+++” when the suppression rate was at least 70%) | +++ (“+++” when the suppression rate was at least 75%) | reduced activity of suppressing the meltrin α expression
5 | H133 + 2: tcggtgggtaggaatctggc (TCGGTGGGTAGGAATCTGGC; antisense; DNA, all phosphorothioate, methylation of C not given here) |  |  | ++ (“++” when the suppression rate was at least 50%) |  | + (“+” when the suppression rate was at least 25%) | 
6 | H135 + 15: gggtctgctgatgtcaacat (GGGTCTGCTGATGTCAACAT; antisense; DNA, all phosphorothioate, methylation of C not given here) |  |  |  |  | + (“+” when the suppression rate was at least 25%) | 
7 | H136 + 19: ctgagggacattcaggccgt (CTGAGGGACATTCAGGCCGT; antisense; DNA, all phosphorothioate, methylation of C not given here) |  |  | +++ (“+++” when the suppression rate was at least 70%) |  | + (“+” when the suppression rate was at least 25%) | 
8 | H139 + 14: taggtgcacgtggggcccgg (TAGGTGCACGTGGGGCCCGG; antisense; DNA, all phosphorothioate, methylation of C not given here) |  |  | ++ (“++” when the suppression rate was at least 50%) |  | ++ (“++” when the suppression rate was at least 50%) | 
9 | H143 + 15: gcttctgaggggggtttggc (GCTTCTGAGGGGGGTTTGGC; antisense; DNA, all phosphorothioate, methylation of C not given here) |  |  | +++ (“+++” when the suppression rate was at least 70%) |  | ++ (“++” when the suppression rate was at least 50%) | 
10 | H144 + 18: ggccagaggatctgcaggca (GGCCAGAGGATCTGCAGGCA; antisense; DNA, all phosphorothioate, methylation of C not given here) |  |  | +++ (“+++” when the suppression rate was at least 70%) |  | ++ (“++” when the suppression rate was at least 50%) | reduced activity of suppressing the meltrin α expression
11 | H151: gtgtgggtggatctgggcac (dG*dT*dG*dT*dG*dG*dG*dT*dG*dG*dA*dT*dC*dT*dG*dG*dG*dC*dA*dC) |  |  | ++ (“++” when the suppression rate was at least 50%) | +++ (“+++” when the suppression rate was at least 70%) | ++ (“++” when the suppression rate was at least 50%) | reduced activity of suppressing the meltrin α expression
